Data: paper PMC7958136, “ANT1 Activation and Inhibition Patterns Support the Fatty Acid Cycling Mechanism for Proton Transport” (International Journal of Molecular Sciences, 2021)

target: T1, recombinant murine ANT1 (mANT1; adenine nucleotide translocase 1) (Mus musculus, UniProt P48962); assay: inhibition of fatty-acid-activated proton conductance, planar lipid bilayer with reconstituted ANT1; type: biochemical; settings: not given
T1 construct: gene Slc25a4
T1 sequence (P48962 2-298): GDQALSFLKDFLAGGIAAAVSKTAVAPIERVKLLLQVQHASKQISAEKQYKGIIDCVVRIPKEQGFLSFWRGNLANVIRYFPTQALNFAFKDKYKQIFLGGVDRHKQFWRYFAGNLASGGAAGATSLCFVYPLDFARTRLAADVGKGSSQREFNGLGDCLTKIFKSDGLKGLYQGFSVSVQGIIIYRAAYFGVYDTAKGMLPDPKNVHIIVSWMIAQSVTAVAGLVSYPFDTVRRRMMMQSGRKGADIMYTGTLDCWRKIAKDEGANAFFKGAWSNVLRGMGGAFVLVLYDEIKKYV

| SMILES | EC50 [µM] |
| --- | --- |
| CO[C@H](C/C=C\C=C\CC/C=C/C[C@H](C)/C=C/C(=C\C(=O)O)CC(=O)O)/C(C)=C\C=C(/C)C(=O)O [bongkrekic acid] | 32.3 ± 11.4 |

same assay, conditions: read-out: EC50

| SMILES | EC50 [µM] |
| --- | --- |
| Nc1nc2c(ncn2[C@@H]2O[C@H](COP(=O)(O)OP(=O)(O)O)[C@@H](O)[C@H]2O)c(=O)[nH]1 [GDP] | 5410 ± 2010 |
| Nc1ncnc2c1ncn2[C@@H]1O[C@H](COP(=O)(O)OP(=O)(O)OP(=O)(O)O)[C@@H](O)[C@H]1O [ATP] | 250 ± 34 |
| Nc1ncnc2c1ncn2[C@@H]1O[C@H](COP(=O)(O)O)[C@@H](O)[C@H]1O [AMP] | 2660 ± 817 |
| Nc1nc2c(ncn2[C@@H]2O[C@H](COP(=O)(O)OP(=O)(O)OP(=O)(O)O)[C@@H](O)[C@H]2O)c(=O)[nH]1 [GTP] | 3320 ± 93 |
| Nc1ncnc2c1ncn2[C@@H]1O[C@H](COP(=O)(O)OP(=O)(O)O)[C@@H](O)[C@H]1O [ADP] | 1310 ± 537 |
